{"source": "patent US10501413B2", "about": "“Inhibitors of the Notch transcriptional activation complex and methods for use of the same” (UNIVERSITY OF MIAMI, priority 2015, dated 2019)", "key": {"[1]": {"system": "esophageal adenocarcinoma PDX tumors", "assay": "Esophageal adenocarcinoma patient-derived xenograft (PDX)", "assay_type": "in vivo, mouse", "procedure": "The effect of the inhibitors of the disclosure on the growth of an established tumor also was investigated using two independent esophageal adenocarcinoma patient-derived xenograft (“PDX”) models. Tumors were established in NSG mice to the size of 250 mm^3 prior to the initiation of treatment. Mice were dosed daily via intraperitoneal (“IP”) injection with either Inhibitor No. 1-134-83 (15 mg/kg) or DAPT (20 mg/kg), and compared to DMSO vehicle control. […] Following 24 days of treatment, tumors were harvested and Notch-target gene transcription was evaluated. […] (FIG. 4) Six-week-old NOD-SCID gamma (“NSG”) mice were purchased from Jackson Laboratories and CD-1 Nude mice were purchased from Charles River Laboratories. For the cell line based xenografts assay, 5×10^6 OE19 cells in 200 μl serum-free culture medium were injected subcutaneously per mouse. The mice in the treatment group were injected with 15 mg/kg of Inhibitor No. 1-134-83 daily, and the mice in the control group were injected with the same volume of vehicle (DMSO). Subcutaneous tumor growth was measured once every 4 days using calipers along with body weight. The experiment was discontinued on day 28. PDX cancer models were established, as described in Zhang et al, Establishment of Patient-Derived Xenograft (PDX) Models of Human Breast Cancer, Current Protocols in Mouse Biology, 3:21-29 (2013), in NSG mice. Briefly, 10 mm^3 pieces of primary EAC29 PDX tumor were transplanted subcutaneously into the flanks of NSG mice using a 13G telescopic needle. When the tumors reached 200 mm^3, the mice were split into two uniform groups for treatment. Compound 1-134-83 (15 mg/kg) and vehicle were administered daily by inraperitoneal (“IP”) injection for 24 days. Tumor growth was monitored every 4 days and tumor volume was measured by the formula: Volume=(S×S×L)/2, where S and L are the short and long dimensions. The xenograft tumors were harvested, weighed and samples were subjected to histological examination and by qPCR."}, "[2]": {"molecular_target": "T1, Notch transcriptional activation complex (CSL, Notch1, MAML1 on DNA) (Homo sapiens, UniProt P46531+Q06330)", "T1 construct": "the intracellular domain of Notch (“NICD”); made in house; host or cells: SF21 insect cells (baculovirus)", "T1 sequence (P46531 1754-2555 limits assumed)": "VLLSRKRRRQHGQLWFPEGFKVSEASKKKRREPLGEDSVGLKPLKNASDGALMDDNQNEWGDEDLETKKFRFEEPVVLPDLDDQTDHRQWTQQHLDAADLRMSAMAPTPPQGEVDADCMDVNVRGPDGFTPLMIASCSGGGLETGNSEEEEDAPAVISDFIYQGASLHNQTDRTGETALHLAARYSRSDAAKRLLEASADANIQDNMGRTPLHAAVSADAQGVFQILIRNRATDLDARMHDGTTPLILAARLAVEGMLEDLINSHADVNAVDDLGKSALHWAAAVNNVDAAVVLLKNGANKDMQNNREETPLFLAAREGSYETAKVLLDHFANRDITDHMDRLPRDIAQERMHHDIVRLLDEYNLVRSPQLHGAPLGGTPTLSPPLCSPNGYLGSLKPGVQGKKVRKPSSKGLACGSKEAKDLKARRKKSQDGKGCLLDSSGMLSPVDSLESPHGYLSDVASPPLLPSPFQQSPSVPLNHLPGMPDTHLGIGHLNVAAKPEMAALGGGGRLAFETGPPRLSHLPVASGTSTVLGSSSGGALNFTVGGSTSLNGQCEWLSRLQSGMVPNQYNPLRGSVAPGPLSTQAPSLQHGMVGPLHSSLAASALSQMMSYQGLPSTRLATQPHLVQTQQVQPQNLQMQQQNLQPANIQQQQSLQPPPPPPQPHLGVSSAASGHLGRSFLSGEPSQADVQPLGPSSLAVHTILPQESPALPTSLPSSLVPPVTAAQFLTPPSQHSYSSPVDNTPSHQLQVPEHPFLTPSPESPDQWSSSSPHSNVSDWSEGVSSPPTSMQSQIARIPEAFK", "T1 sequence (Q06330 whole entry, the tested form may be a part)": "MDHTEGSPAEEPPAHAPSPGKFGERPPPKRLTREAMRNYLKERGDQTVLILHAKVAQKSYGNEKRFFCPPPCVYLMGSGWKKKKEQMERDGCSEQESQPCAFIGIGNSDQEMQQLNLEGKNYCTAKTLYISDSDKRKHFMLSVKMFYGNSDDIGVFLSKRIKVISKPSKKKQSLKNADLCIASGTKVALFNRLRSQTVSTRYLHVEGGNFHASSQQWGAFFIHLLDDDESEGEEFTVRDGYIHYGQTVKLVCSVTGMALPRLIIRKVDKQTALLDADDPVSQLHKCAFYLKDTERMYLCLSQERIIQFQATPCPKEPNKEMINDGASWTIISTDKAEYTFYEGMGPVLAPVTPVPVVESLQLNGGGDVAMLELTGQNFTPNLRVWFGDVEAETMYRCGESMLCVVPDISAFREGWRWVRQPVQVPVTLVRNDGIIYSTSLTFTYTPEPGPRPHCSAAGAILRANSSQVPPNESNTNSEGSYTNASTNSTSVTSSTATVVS", "assay": "Notch complex assembly assay (ALPHASCREEN)", "assay_type": "biochemical", "source_text": "An in vitro assay was developed to monitor the assembly of the Notch transcriptional complex (“NTC”) on DNA. The NTC, which includes the Notch, Mastermind (“MAML1”), and CSL proteins, binds to a specific DNA sequence in a CSL-dependent manner. For the assay, baculovirus produced CSL, Notch, and MAML1 were mixed together with a biotinylated DNA oligomer containing the CSL target sequence. Assembly of the NTC on DNA was then monitored with the proximity-based ALPHASCREEN (Perkin Elmer) using streptavidin and protein A beads (FIGS. 1A and 1B). A signal results when MAML1 is recruited to CSL bound DNA.\nAll recombinant proteins were expressed using baculovirus expression vectors in SF21 cells and purified. Unless otherwise stated, all assays contained 125 fmol of double stranded oligonucleotide, CSL, Notch1 and MAML1 proteins. Reactions were carried out in Tris-buffered saline with 0.1% Tween (“TBS-T”) buffer containing 0.2% bovine serum albumin (“BSA”) and 100 ug/mL salmon sperm DNA. Briefly, the Notch complex was assembled on a biotinylated double stranded (“DS”) oligonucleotide harboring one CSL binding site (5′-[…]-3′). Complex assembly was quantitated using ALPHASCREEN technology (Perkin Elmer). Proteins in the complexes were detected using specific antibodies to either MAML1 (Cell signaling, D3K7B), Notch1 (Abcam, 52627) or CSL (anti-His, Abcam 18184). Streptavidin conjugated acceptor beads (Perkin Elmer, 6760002) were used to bind the DS oligonucleotide, and Protein-A conjugated donor beads (Perkin Elmer, 6760137) were used to detect antibody-coated proteins. For screening compounds, Notch transcriptional activation complex (“NTC”) components were added to wells that already contained the inhibitor to be assayed and allowed to incubate for 30 minutes. The ALPHASCREEN plate (Perkin Elmer, 6008350) was then read on an Envision Plate reader (Perkin Elmer) as specified by the manufacturer.\nDetermination of Equilibrium Dissociation Constants (KD) and Half Maximal Inhibitory Concentrations (IC50)"}, "[3]": {"system": "Notch target gene transcription", "assay": "RT-qPCR of Notch target genes in cancer cell lines", "assay_type": "cell-based, human", "procedure": "The effect of inhibitor treatment on Notch-target gene transcription also was investigated (FIGS. 2C and 2D). […] As proof of specificity, transcription of the housekeeping gene, HPRT, was unaltered in treated cells. To test the effects of Notch inhibition on proliferation, a colony formation assay was performed.\nTo extend the analysis of tumor cell growth inhibition, several commonly used cancer cell lines were selected to test for sensitivity to Inhibitor No. 1-134-83 (FIGS. 3A and 3B). […] In this analysis, sensitivity to DAPT is taken to indicate specific inhibition of Notch activity. […] Cells that are refractory to DAPT were equally resistant to Inhibitor No. 1-134-83.\nRT-PCR analysis was performed using TaqMan probes according to manufacturer's instructions. In particular, 80 ng of RNA equivalent was used per reaction. Gene expression was normalized to the TATA-binding protein (“TBP”) gene. As a control, hypoxanthine phosphoribosyltransferase 1 (“HPRT”) gene expression was also monitored."}, "[4]": {"system": "NICD in OE33 and 786-0 cells", "assay": "Western analysis of NICD levels", "assay_type": "cell-based, human", "conditions": "OE33 and 786-0 cell lysates", "procedure": "The effect of inhibitor treatment on the assembly of the NTC in cells was investigated.\nProtein analysis was carried out using conventional SDS-PAGE and transfer techniques. Blots were probed with the indicated antibody (“Ab”), using standard conditions, and detected using enhanced chemiluminescence (“ECL”). The following Ab were used: anti-Notch1 (ab52627, abcam), anti-Notch1^val1744 (4147S, Cell Signaling Technology) and anti-GAPDH (ab9483, Abcam)."}}}
{"smiles": "CCOC(=O)COc1ccc(/C=C2\\SC(=S)NC2=O)cc1OC", "note": "[1-134-83]", "values": [{"measurement": "weight loss or visible signs of stress", "setting": "[1]; NSG mice, 15 mg/kg daily IP", "value": "without any significant weight loss or other visible signs of stress"}, {"measurement": "growth of established tumor", "setting": "[1]; NSG mice, two PDX models, daily IP, 1-134-83 15 mg/kg, DAPT 20 mg/kg", "value": "significantly stunted growth"}, {"measurement": "decrease in tumor volume by the experimental endpoint", "setting": "[1]; PDX tumor, versus vehicle", "value": "three-fold"}, {"measurement": "transcription of control gene (TBP2) in tumors", "setting": "[1]; treated PDX tumors, qPCR", "value": "unaffected"}, {"measurement": "level of Notch target genes (Hes1, HeyL, Notch3) in tumors", "setting": "[1]; tumors harvested after 24 days of treatment, qPCR", "value": "dramatically reduced"}, {"measurement": "IC50", "setting": "[2]", "value": 26, "unit": "µM"}, {"measurement": "Notch target gene transcription", "setting": "[3]; OE33 and 786-0 cells, qPCR", "value": "dose-dependent decrease"}, {"measurement": "transcription of control gene HPRT", "setting": "[3]; OE33 and 786-0 cells, qPCR", "value": "unaltered"}, {"measurement": "Notch target gene transcription", "setting": "[3]; insensitive cancer cell lines of the panel, 48 hrs", "value": "do not show a statistically significant reduction"}, {"measurement": "Notch target gene transcription", "setting": "[3]; sensitive cancer cell lines of the panel, 48 hrs, DAPT 10, 1-134-83 15 and 25 μM", "value": "significantly reduced"}, {"measurement": "levels of NICD in cells", "setting": "[4]", "value": "does not change"}]}
